Key:
ABHD12 [1] = biological target: T1, ABHD12 (Mus musculus, UniProt Q99LR1); assay: Gel-based competitive ABPP, JJH350 probe vs brain membrane proteome; format: biochemical; conditions: for inhibition at 10 µM: 10 μM compound, read-out: % Inhibition @ 10 μM (ABPP gel_JJH350 probe vs brain mem); for IC50: read-out: IC50 (ABPP gel_JJH350 probe vs brain mem)
T1 construct: from tissue; host or cells: brain membrane proteome
T1 sequence (Q99LR1 1-398): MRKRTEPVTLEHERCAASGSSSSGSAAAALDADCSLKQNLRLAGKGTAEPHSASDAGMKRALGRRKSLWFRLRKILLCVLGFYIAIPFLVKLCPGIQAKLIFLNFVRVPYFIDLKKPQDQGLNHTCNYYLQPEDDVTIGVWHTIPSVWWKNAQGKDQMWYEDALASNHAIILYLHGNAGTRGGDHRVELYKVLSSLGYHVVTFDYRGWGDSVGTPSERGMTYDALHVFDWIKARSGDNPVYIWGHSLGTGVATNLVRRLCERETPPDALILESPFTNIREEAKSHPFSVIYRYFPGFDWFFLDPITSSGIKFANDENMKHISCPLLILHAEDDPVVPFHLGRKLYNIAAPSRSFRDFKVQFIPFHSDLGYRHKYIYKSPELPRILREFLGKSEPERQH
Experimental: Gel-Based Competitive ABPP for In Vitro Inhibitor Treatment of Proteomes:
Gel-based ABPP assays were performed as previously reported (Bachovchin, D. A. et al. Superfamily-wide portrait of serine hydrolase inhibition achieved by library-versus-library screening. Proc. Natl. Acad. Sci. U. S. A. 2010, 107, 20941-20946). Cell or tissue proteomes (50 μL, 1 mg/mL) were treated with either FP-Rh (1 μM final concentration) or JJH350 (2 μM final concentration) for 45 min at 37° C. For FP-Rh labeled samples, the reactions were quenched by adding 20 μL of 4× SDS-PAGE loading buffer. The 30 μL of the quenched samples were loaded on gel for analysis. For (S)-1,3-dioxo-7-(4-phenoxybenzoyl)hexahydroimidazo[1,5-a]pyrazin-2(3H)-yl 4-(4-(prop-2-yn-1-yloxy)phenyl)piperazine-1-carboxylate (JJH350)-labeled samples, copper-catalyzed azide-alkyne cycloaddition (CuAAC) was used for visualizing the labeled proteins following the reported protocol. Briefly, rhodamine-PEG3-N3 (1 μL/reaction, 1.25 mM in DMSO), CuSO4 (1 μL/reaction, 50 mM in H2O), TBTA (3 μL/reaction, 1.7 mM in DMSO/t-BuOH [1:4, v/v]) and tris(2-carboxyethyi)phosphine (TCEP) (1 μL/reaction, 50 mM in H2O, freshly prepared) were premixed. 6 μL of this click reagent mixture was immediately added to each JJH350-labeled samples (50 μL, 1 mg/mL) and incubated for 1 h at room temperature. The reactions were quenched by adding 20 μL of 4× SDS-PAGE loading buffer. The 40 μL of the quenched samples were loaded on a gel for analysis.
After separation by SDS-PAGE (10% acrylamide), samples were visualized by in-gel fluorescence scanning using the ChemiDoc MP system (Bio-Rad). Band intensities were quantified using the Image Lab (5.2.1) software (Bio-Rad).

ABHD12 [2] = biological target: T2, ABHD12 (Homo sapiens, UniProt Q8N2K0); assay: Lyso-PS hydrolysis assay (substrate-based), ABHD12-overexpressing HEK293T membrane lysate; format: biochemical; conditions: 17:1 lyso-PS substrate; ABHD12-overexpressed HEK lysate; read-out: IC50 (Substrate-based assay_ABHD12-overexpressed HEK lysate)
T2 construct: expressed in transfected cells; host or cells: HEK293T
T2 sequence (Q8N2K0 1-398): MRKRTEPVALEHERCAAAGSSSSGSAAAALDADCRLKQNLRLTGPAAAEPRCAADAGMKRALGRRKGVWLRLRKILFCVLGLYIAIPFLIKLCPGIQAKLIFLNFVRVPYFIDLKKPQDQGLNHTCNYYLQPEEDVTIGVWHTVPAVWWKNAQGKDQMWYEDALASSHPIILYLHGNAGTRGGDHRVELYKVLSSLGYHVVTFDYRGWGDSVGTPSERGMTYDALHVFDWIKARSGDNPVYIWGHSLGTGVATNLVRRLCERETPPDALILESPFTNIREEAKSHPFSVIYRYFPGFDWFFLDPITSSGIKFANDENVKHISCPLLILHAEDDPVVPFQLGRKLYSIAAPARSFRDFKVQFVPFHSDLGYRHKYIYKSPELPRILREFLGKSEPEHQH
Experimental: Lyso-PS Hydrolysis Assay:
The lyso-PS lipase activity of ABHD12 was determined as previously described (Blankman, J. L., Long, J. Z., Trauger, S. A., Siuzdak, G. & Cravatt, B. F. ABHD12 controls brain lysophosphatidylserine pathways that are deregulated in a murine model of the neurodegenerative disease PHARC. Proc. Natl. Acad. Sci. U. S. A. 110, 1500-1505, doi:10.1073/pnas.1217121110 (2013)) with some minor modifications. The proteome concentrations were adjusted to 0.25 mg/mL (ABHD12-overexpressing HEK293T membrane) or 0.5 mg/mL (mouse brain membrane) in Dulbecco's phosphate-buffered saline (DPBS) (80 μL/reaction). 20 μL of 500 μM 17:1 lyso-PS in DPBS was added to each reaction (100 μM final concentration) and incubated at 37° C. After 30 min, the reaction was quenched with 400 μL of 2:1 CHCl3/MeOH (v/v) with 1 nmol 15:0 FFA as an internal standard. The mixture was vortexed and centrifuged at 1,400× g to separate the aqueous and organic phase. The organic phase was analyzed by LC-MS (1200 LC/MSD, Agilent Technologies). The separation of the analyte was achieved using a 50 mm×4.6 mm 5 μm Gemini C18 column (Phenomenex) coupled to a guard column (Gemini: C18: 4×3 mm). The LC solvents were as follows: buffer A, […] (95:5, v/v) with 0.1% NH4OH (v/v); and buffer B, iPrOH:MeOH:H2O (60:3 5:5, v/v/v) with 0.1% NH4OH (v/v). The LC method consisted of 0.1 mL/min 20% buffer B for 1.0 min, 0.4 ml/min isocratic mode of 100% buffer B over 7 min and equilibration with 0.5 mL/min 100% buffer A for 3 min. The MS analyses were performed using an electrospray ionization source (ESI) in negative ion mode to measure product formation. MS data were acquired in selected ion monitoring mode at m/z 267.20 for 17:1 FFA and m/z 241.20 for 15:0 FFA.

inhibition at 10 µM (ABHD12 [1]) [%] | IC50 (ABHD12 [1]) [nM] | IC50 (ABHD12 [2]) [nM] | SMILES
– | ≤ 100 | ≤ 100 | FC(F)(F)Oc1ccc(Oc2ccnc(N3CCC(NC(=S)Nc4cccnc4)CC3)c2Cl)c(Cl)c1 [Example 4, 1-(1-(3-Chloro-4-(2-chloro-4-(trifluoromethoxy)phenoxy)pyridin-2-yl)piperidin-4-yl)-3-(pyridin-3-yl)thiourea]
25 to 50 | 1000 to 25000 | 1000 to 25000 | FC(F)(F)c1cccnc1N1CCC(NC(=S)Nc2cccnc2)CC1 [Example 16, 1-(Pyridin-3-yl)-3-(1-(3-(trifluoromethyl)pyridin-2-yl)piperidin-4-yl)thiourea]
≥ 75 | 1000 to 25000 | 1000 to 25000 | FC(F)(F)c1cc(N2CCC(NC(=S)Nc3cccnc3)CC2)ncc1Cl [Example 25, 1-(1-(5-Chloro-4-(trifluoromethyl)pyridin-2-yl)piperidin-4-yl)-3-(pyridin-3-yl)thiourea]
≥ 75 | 100 to 1000 | 100 to 1000 | FC(F)(F)c1cc(Cl)nc(N2CCC(NC(=S)Nc3cccnc3)CC2)c1 [Example 27, 1-(1-(6-Chloro-4-(trifluoromethyl)pyridin-2-yl)piperidin-4-yl)-3-(pyridin-3-yl)thiourea]
≥ 75 | 100 to 1000 | 100 to 1000 | FC(F)(F)c1ccc(Oc2ccnc(N3CCC(NC(=S)Nc4cccnc4)CC3)c2)cc1 [Example 51, 1-(Pyridin-3-yl)-3-(1-(4-(4-(trifluoromethyl)phenoxy)pyridin-2-yl)piperidin-4-yl)thiourea]
≥ 75 | – | 100 to 1000 | FC(F)(F)Oc1ccc(Oc2ccnc(N3CCC(NC(=S)Nc4cccnc4)CC3)c2)cc1Cl [Example 54, 1-(1-(4-(3-Chloro-4-(trifluoromethoxy)phenoxy)pyridin-2-yl)piperidin-4-yl)-3-(pyridin-3-yl)thiourea]

Further lines, the molecule ahead of its results:

SMILES | inhibition at 10 µM (ABHD12 [1]) [%] | IC50 (ABHD12 [1]) [nM] | IC50 (ABHD12 [2]) [nM]
FC(F)(F)c1cnc(N2CCC(NC(=S)Nc3cccnc3)CC2)c(Cl)c1 [Example 1, 1-(1-(3-Chloro-5-(trifluoromethyl)pyridin-2-yl)piperidin-4-yl)-3-(pyridin-3-yl)thiourea] | ≥ 75 | 1000 to 25000 | 1000 to 25000
FC(F)(F)Oc1ccc(Oc2ccnc(N3CCC(NC(=S)Nc4cccnc4)CC3)c2)cc1 [Example 2, 1-(Pyridin-3-yl)-3-(1-(4-(4-(trifluoromethoxy)phenoxy)pyridin-2-yl)piperidin-4-yl)thiourea] | ≥ 75 | 100 to 1000 | 100 to 1000
FC(F)(F)Oc1ccc(Oc2ccnc(N3CCC(NC(=S)Nc4cccnc4)CC3)c2Cl)cc1 [Example 3, 1-(1-(3-chloro-4-(4-(trifluoromethoxy)phenoxy)pyridin-2-yl)piperidin-4-yl)-3-(pyridin-3-yl)thiourea] | ≥ 75 | ≤ 100 | ≤ 100
C#Cc1ccc(Oc2ccnc(N3CCC(NC(=S)Nc4cccnc4)CC3)c2Cl)c(Cl)c1 [Example 5, 1-(1-(3-Chloro-4-(2-chloro-4-ethynylphenoxy)pyridin-2-yl)piperidin-4-yl)-3-(pyridin-3-yl)thiourea] | – | – | ≤ 100
FC(F)(F)c1ccc(N2CCC(NC(=S)Nc3cccnc3)CC2)nc1 [Example 14, 1-(Pyridin-3-yl)-3-(1-(5-(trifluoromethyl)pyridin-2-yl)piperidin-4-yl)thiourea] | ≥ 75 | 1000 to 25000 | 1000 to 25000
FC(F)(F)c1ccnc(N2CCC(NC(=S)Nc3cccnc3)CC2)c1 [Example 15, 1-(Pyridin-3-yl)-3-(1-(4-(trifluoromethyl)pyridin-2-yl)piperidin-4-yl)thiourea] | ≥ 75 | 100 to 1000 | 1000 to 25000
FC(F)(F)c1ccnc(N2CCC(NC(=S)Nc3cccnc3)CC2)c1Cl [Example 26, 1-(1-(3-Chloro-4-(trifluoromethyl)pyridin-2-yl)piperidin-4-yl)-3-(pyridin-3-yl)thiourea] | ≥ 75 | 100 to 1000 | 100 to 1000
S=C(Nc1cccnc1)NC1CCN(c2cc(Cl)ccn2)CC1 [Example 28, 1-(1-(4-Chloropyridin-2-yl)piperidin-4-yl)-3-(pyridin-3-yl)thiourea] | ≥ 75 | 1000 to 25000 | 1000 to 25000
FC(F)(F)c1cccc(N2CCC(NC(=S)Nc3cccnc3)CC2)n1 [Example 29, 1-(Pyridin-3-yl)-3-(1-(6-(trifluoromethyl)pyridin-2-yl)piperidin-4-yl)thiourea] | ≥ 75 | 100 to 1000 | 100 to 1000
S=C(Nc1cccnc1)NC1CCN(c2cc(Oc3ccccc3)ccn2)CC1 [Example 40, 1-(1-(4-Phenoxypyridin-2-yl)piperidin-4-yl)-3-(pyridin-3-yl)thiourea] | ≥ 75 | 1000 to 25000 | 1000 to 25000
Fc1ccc(Oc2ccnc(N3CCC(NC(=S)Nc4cccnc4)CC3)c2)cc1 [Example 41, 1-(1-(4-(4-Fluorophenoxy)pyridin-2-yl)piperidin-4-yl)-3-(pyridin-3-yl)thiourea] | ≥ 75 | 1000 to 25000 | 1000 to 25000
FC(F)(F)Oc1cc(Oc2ccnc(N3CCC(NC(=S)Nc4cccnc4)CC3)c2)ccc1Cl [Example 57, 1-(1-(4-(4-Chloro-3-(trifluoromethoxy)phenoxy)pyridin-2-yl)piperidin-4-yl)-3-(pyridin-3-yl)thiourea] | ≥ 75 | 100 to 1000 | 100 to 1000
FC(F)(F)Oc1ccc(Oc2ccnc(N3CCC(NC(=S)Nc4cccnc4)CC3)c2C(F)(F)F)cc1 [Example 59, 1-(Pyridin-3-yl)-3-(1-(4-(4-(trifluoromethoxy)phenoxy)-3-(trifluoromethyl)pyridin-2-yl)piperidin-4-yl)thiourea] | ≥ 75 | 1000 to 25000 | 1000 to 25000

Source: patent US11897865B2, “ABHD12 inhibitors and methods of making and using same” (THE SCRIPPS RESEARCH INSTITUTE, priority 2018, dated 2024)
